# US20090274698A1, “Combination anti-cancer therapy” (priority 2007, published 2009)
# Experiments:
# tumor cell lines = experiment: Anti-proliferative activity across tumor cell lines (statement of the description); format: cell-based
# pAkt = experiment: Western blot of pAkt in a panel of cell lines from various tumor types; format: cell-based, human
# Procedure: (§1) Cell extracts were prepared by detergent lysis (50 mM Tris-HCl, pH 8.0, 150 mM NaCl, 1% NP-40, 0.5% sodium deoxycholate, 0.1% SDS, containing protease inhibitor (P8340, Sigma, St. Louis, Mo.) and phosphatase inhibitor (P5726, Sigma, St. Louis, Mo.) cocktails. The soluble protein concentration was determined by micro-BSA assay (Pierce, Rockford Ill.). Protein immunodetection was performed by electrophoretic transfer of SDS-PAGE separated proteins to nitrocellulose, incubation with antibody, and chemiluminescent second step detection (PicoWest; Pierce, Rockford, Ill.). The antibodies included: phospho-Akt(473), phospho-Akt(308), and total Akt. All antibodies were obtained from Cell Signaling Technology, Inc. (Danvers, Mass.). For analysis of an agent's effect on the phosphorylation of downstream signaling proteins, cell lines were grown to approximately 70% confluency, at which time the indicated agent was added at the indicated concentration, and cells were incubated at 37° C. for 24 hours. The media was removed, cells were washed two times with PBS, and cells were lysed as previously described.
# [1] = system: pAkt-S473 in ovarian carcinoma cell lines (Ovcar3, SKov3, MDAH 2774, CaOV3); experiment: Western blot of phospho-Akt(S473) in ovarian carcinoma cell lines, cisplatin study (FIG. 8); settings: 10 nM rapamycin, 20 μM Compound A, 30 μM cisplatin, 24 hours
# Procedure: Band density was determined and relative levels of phospho-Akt(S473) are expressed graphically relative to DMSO-treated control lysate. Four ovarian cell lines were assayed (A) Ovcar3, (B) SKov3, (C) MDAH 2774, (D) CaOV3.
# as §1
# MDA-MB-231 cells = experiment: Apoptosis (Caspase 3/7 Glo) in MDA-MB-231 cells; format: cell-based, human; settings: MDA-MB-231, 24 hours, Caspase 3/7 activity
# Procedure: Apoptosis was measured 24 hrs after treatment. […] Measurements were made 24 hours after treatments, and apoptosis was evaluated by fold induction in Caspase 3/7 activity.
# [2] = system: pAkt (Ser 473) in MDA-MB-231 tumor cells; experiment: Western blot of pAkt (Ser 473) in MDA-MB-231 tumor cells; settings: MDA-MB-231, 24 hours
# Procedure: Cells were treated for 24 hours prior to harvesting lysates. Ctrl=control.
# as §1
# [3] = system: pAkt (serine 473) in ovarian tumor cells; experiment: Western blot of pAkt (serine 473) in ovarian cell lines, gemcitabine study (FIG. 11A); format: cell-based, human; settings: gemcitabine 1 μM, Compound B 10 μM, rapamycin 10 nM, 24 hours
# Procedure: as §1
# [4] = system: pAkt (Ser 473) in Ovcar3 cells; experiment: Western blot of pAkt (Ser 473) in Ovcar3 cells (FIG. 9, 10); format: cell-based, human; settings: Ovcar3, 24 hours; 10 nM rapamycin, 10 μM irinotecan
# Text: FIG. 9. Compound B inhibits irinotecan-induced Akt phosphorylation and enhances irinotecan-induced apoptosis in ovarian tumor cells. […] Phospho-Akt was detected using an antoibody specific to Serine 473. […] Apoptosis is expressed as the fold increase in induction relative to DMSO-treated cells.
# FIG. 10. Compound B inhibits doxorubicin-induced Akt phosphorylation and enhances doxorubicin-induced apoptosis in ovarian tumor cells. […] Phospho-Akt was detected using an antibody specific to Serine 473. […] Apoptosis is expressed as the fold increase in induction relative to DMSO-treated cells.
compound,measurement,setting,value
CO[C@H]1C[C@@H]2CC[C@@H](C)[C@@](O)(O2)C(=O)C(=O)N2CCCC[C@H]2C(=O)O[C@H]([C@H](C)C[C@@H]2CC[C@@H](O)[C@H](OC)C2)CC(=O)[C@H](C)/C=C(\C)[C@@H](O)[C@@H](OC)C(=O)[C@H](C)C[C@H](C)/C=C/C=C/C=C/1C [Rapamycin],cell lines in a given tumor type that are insensitive (anti-proliferative activity),tumor cell lines,approximately 50%
same,tumor cells tested in which pAKT is induced,pAkt; Table 2,~62%
same,cancer cell lines in which pAkt (S473) is inhibited,pAkt; statement of the description,~20%
same,cell lines in which treatment increases pAkt (S473),pAkt; statement of the description,~65%
N.N.[Cl][Pt][Cl] [cisplatin],"effect on pAkt-S473, single agent",[1],promotes an increase in Akt phosphorylation
COc1cccc2c1C(=O)c1c(O)c3c(c(O)c1C2=O)C[C@@](O)(C(=O)CO)C[C@@H]3O[C@H]1C[C@H](N)[C@H](O)[C@H](C)O1 [doxorubicin],"induction in apoptosis, single agent",MDA-MB-231 cells,no significant induction in apoptosis
same,"effect on pAkt-S473, single agent",[2],promotes an increase in Akt phosphorylation
Nc1ccn([C@@H]2O[C@H](CO)[C@@H](O)C2(F)F)c(=O)n1 [gemcitabine],"effect on Akt phosphorylation (serine 473), single agent",[3],increased Akt phosphorylation on serine 473
CCc1c2c(nc3ccc(OC(=O)N4CCC(N5CCCCC5)CC4)cc13)-c1cc3c(c(=O)n1C2)COC(=O)[C@]3(O)CC [irinotecan],"effect on pAkt levels, single agent",[4],causes an induction in pAkt levels
